{
  "source": "patent US20160002273A1",
  "about": "“THIENO[3,2-D]PYRIMIDINE-6-CARBOXAMIDES AND ANALOGUES AS SIRTUIN MODULATORS” (GLAXOSMITHKLINE LLC, priority 2013, published 2016)",
  "key": {"SIRT2": {"biological_target": "T1, SIRT2 (Homo sapiens, UniProt Q8IXJ6)", "T1 sequence (Q8IXJ6 1-389)": "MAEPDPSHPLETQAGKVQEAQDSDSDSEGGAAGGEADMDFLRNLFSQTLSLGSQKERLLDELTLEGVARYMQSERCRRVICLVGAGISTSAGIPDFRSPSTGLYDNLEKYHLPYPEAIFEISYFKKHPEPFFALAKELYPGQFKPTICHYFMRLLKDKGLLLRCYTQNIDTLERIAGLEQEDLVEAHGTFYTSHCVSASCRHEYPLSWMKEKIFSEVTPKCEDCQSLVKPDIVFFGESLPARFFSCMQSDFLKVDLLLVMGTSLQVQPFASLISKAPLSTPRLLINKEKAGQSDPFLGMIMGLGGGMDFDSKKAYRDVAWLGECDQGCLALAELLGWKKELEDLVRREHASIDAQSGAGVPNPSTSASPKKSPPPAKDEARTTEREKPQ", "assay": "SIRT2 deacetylation of Trp 5-mer peptide, OAADPr mass spec assay", "format": "biochemical", "parameters": "His-SIRT2(1-389)"}, "CYP 2C19": {"biological_target": "CYP 2C19 (Homo sapiens, UniProt P33261)", "sequence (P33261 whole entry)": "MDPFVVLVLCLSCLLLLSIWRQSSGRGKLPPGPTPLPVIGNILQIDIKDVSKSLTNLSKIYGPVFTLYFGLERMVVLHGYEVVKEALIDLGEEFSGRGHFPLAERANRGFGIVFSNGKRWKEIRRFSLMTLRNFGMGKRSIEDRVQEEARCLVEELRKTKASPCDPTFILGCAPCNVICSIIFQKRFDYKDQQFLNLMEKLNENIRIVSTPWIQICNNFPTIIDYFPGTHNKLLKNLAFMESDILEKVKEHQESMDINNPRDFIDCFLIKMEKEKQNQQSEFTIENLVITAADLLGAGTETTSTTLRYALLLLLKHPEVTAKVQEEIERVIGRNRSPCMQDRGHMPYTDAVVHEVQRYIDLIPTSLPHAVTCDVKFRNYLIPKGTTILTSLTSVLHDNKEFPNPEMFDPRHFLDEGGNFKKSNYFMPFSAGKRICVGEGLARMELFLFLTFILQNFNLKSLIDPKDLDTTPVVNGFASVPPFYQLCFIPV", "assay": "CYP inhibition 2C19", "format": "in vitro ADME"}, "CYP 3A4": {"biological_target": "CYP 3A4 (Homo sapiens, UniProt P08684)", "sequence (P08684 whole entry)": "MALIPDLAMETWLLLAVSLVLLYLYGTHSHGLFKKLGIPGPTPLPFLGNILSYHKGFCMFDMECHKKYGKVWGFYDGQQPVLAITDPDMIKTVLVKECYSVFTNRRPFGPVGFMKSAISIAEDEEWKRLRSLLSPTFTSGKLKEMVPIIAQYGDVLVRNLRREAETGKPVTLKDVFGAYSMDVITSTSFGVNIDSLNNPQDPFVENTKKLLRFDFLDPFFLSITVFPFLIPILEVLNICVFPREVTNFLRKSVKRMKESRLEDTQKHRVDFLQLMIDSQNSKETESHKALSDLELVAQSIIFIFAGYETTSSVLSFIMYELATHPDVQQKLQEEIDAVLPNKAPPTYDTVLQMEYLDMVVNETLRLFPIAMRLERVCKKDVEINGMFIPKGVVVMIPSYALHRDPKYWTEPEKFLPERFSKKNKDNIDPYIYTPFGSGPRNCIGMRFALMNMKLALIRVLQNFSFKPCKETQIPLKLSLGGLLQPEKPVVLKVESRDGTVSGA", "assay": "CYP inhibition 3A4", "format": "in vitro ADME"}, "[1]": {"assay": "Stability in mouse microsomes", "format": "in vitro ADME"}, "[2]": {"tested_on": "sirtuin mediated deacetylation of acetyl-p65", "assay": "Acetyl-p65 assay in U2OS cells (AlphaScreen)", "format": "cell-based", "settings": "FIG. 6", "description": "In certain embodiments, U2OS cells were counted by hemocytometer and diluted to a concentration of 1.5×10^5 cell/ml. BacMam p65 and BacMam p300-HAT viruses were added to the diluted cells at 1% and 1% (vol/vol). 40 μl aliquots of the cell suspensions containing the viruses were plated onto a 384 well plate with a multi-drop dispenser. After 7 hours, a 2-fold serial dilution of Compounds 25, 28 and Compound 4, hereafter referred to as the test compounds, was carried out in DMSO. The test compounds were subsequently diluted with medium (20-fold) in an intermediate compound plate, and 4 μL of each test compound was transferred by a liquid handler from the intermediate plate to a cell plate. 24 hours post viral transduction, the medium in the cell plate was removed by inverting and flicking the plate, and blotting the plate with paper towels. 30 μl of lysis buffer (25 mM HEPES pH 7.4, 0.5% Triton X-100, 1 mg/ml Dextran 500, 0.1% BSA, 300 mM NaCl, 2 mM MgCl2, 1×protease inhibitor cocktail) was added to each well to lyse the cells. After incubation of the cells with lysis buffer for 30 minutes at room temp, 10 μl and 3 μl aliquots of the cell lysates were transferred to assay plates, and the assay plate containing 3 μl aliquot of cell lysates was diluted with an additional 7 μl of lysis buffer to obtain a final volume of 10 μl. Acetyl-p65 and total p65 protein in cell lysates were measured using the AlphaScreen assay format (PerkinElmer). The antibodies used to detect acetyl-p65 protein were biotinylated anti-HA antibody (Roche, 12158167001) and anti-acetylated K310-p65 antibody (Abcam, ab19870). The antibodies used to detect total p65 protein were biotinylated anti-HA antibody (Roche, 12158167001) and anti-p65 antibody (Santa Cruz, sc109). […] After incubating the plates for another 2 hrs in the dark, the plates were read by a PHERAstar microplate reader. […]"}, "[3]": {"assay": "Stability in human microsomes", "format": "in vitro ADME"}, "CYP 2D6": {"biological_target": "CYP 2D6 (Homo sapiens, UniProt P10635)", "sequence (P10635 whole entry)": "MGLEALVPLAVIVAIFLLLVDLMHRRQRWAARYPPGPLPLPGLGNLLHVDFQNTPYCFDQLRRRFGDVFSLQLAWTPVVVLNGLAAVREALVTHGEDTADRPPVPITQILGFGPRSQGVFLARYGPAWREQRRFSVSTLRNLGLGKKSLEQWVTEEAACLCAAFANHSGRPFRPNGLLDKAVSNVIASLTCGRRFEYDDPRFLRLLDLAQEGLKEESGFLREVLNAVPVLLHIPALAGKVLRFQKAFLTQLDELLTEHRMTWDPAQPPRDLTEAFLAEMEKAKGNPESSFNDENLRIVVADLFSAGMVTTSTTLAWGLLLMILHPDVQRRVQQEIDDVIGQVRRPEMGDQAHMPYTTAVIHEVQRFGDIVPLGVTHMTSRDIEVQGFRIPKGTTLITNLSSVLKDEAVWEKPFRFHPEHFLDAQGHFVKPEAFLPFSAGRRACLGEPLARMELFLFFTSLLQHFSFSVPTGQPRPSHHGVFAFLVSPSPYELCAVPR", "assay": "CYP inhibition 2D6", "format": "in vitro ADME"}, "[4]": {"assay": "HPLC based lipophilicity assay (CHI LogD)", "format": "physicochemical", "settings": "CHI values by reverse phase HPLC transformed to a LogD scale"}, "SIRT1": {"biological_target": "T2, SIRT1 (Homo sapiens, UniProt Q96EB6)", "T2 sequence (Q96EB6 1-747)": "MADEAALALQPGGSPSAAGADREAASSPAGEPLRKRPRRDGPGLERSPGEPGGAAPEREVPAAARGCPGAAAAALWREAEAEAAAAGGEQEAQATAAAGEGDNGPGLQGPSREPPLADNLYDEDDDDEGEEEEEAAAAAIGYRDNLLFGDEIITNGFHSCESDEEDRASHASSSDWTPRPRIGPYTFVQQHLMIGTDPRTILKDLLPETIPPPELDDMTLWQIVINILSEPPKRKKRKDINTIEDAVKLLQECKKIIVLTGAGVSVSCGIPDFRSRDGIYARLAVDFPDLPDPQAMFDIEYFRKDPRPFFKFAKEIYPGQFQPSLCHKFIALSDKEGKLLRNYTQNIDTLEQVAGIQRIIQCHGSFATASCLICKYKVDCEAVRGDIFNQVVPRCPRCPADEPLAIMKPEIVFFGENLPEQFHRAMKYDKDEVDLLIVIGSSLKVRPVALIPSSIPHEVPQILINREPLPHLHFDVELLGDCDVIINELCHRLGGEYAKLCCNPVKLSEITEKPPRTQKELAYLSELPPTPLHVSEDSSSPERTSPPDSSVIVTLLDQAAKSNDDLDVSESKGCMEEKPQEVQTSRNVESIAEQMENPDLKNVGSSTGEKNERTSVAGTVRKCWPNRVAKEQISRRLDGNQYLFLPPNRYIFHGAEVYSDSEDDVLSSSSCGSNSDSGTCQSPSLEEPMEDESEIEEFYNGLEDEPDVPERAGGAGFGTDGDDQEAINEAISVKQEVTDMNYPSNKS", "assay": "SIRT1 deacetylation of Trp 5-mer peptide, OAADPr mass spec assay", "quoted_text": "All assays were performed at room temperature in reaction buffer (50 mM HEPES, pH 7.5, 150 mM NaCl, 1 mM DTT, 0.05% BSA). […] To prepare the assays for analysis, 20 μL of reaction volume was mixed in 80 μL of 50:50 acetonitrile:methanol mixture. […] Peak data was integrated using RapidFire Integrator software (Agilent, Santa Clara, Calif.)."}, "CYP 1A2": {"biological_target": "T3, CYP 1A2 (Homo sapiens, UniProt P05177)", "T3 sequence (P05177 1-516)": "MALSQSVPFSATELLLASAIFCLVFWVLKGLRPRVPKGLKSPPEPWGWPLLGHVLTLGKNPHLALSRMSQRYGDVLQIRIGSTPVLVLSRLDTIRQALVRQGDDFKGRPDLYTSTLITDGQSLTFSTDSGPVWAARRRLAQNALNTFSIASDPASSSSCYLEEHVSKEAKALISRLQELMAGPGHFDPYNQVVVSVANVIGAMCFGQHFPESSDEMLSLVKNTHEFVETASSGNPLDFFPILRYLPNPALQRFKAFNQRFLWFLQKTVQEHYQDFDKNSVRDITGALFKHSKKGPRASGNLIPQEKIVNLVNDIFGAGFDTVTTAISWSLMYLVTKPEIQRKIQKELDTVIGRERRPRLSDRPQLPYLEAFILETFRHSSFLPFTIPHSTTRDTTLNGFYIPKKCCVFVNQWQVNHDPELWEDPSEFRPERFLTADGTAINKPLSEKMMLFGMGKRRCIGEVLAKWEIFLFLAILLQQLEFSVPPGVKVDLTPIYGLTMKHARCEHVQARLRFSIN", "assay": "CYP inhibition 1A2", "format": "in vitro ADME"}, "[5]": {"assay": "Kinetic solubility by chemi-luminescent nitrogen detection (CLND)", "format": "physicochemical", "settings": "aqueous buffer, kinetic from dmso stock, DMSO stock incubated 1 hr in phosphate buffered saline pH 7.4, filtered"}},
  "note": "Where two headings read alike, the source gives them in different places.",
  "data": [
    {"smiles": "CC(C)(C)C(=O)NCCC1CCN(c2ncnc3cc(C(N)=O)sc23)CC1", "note": "[Compound 28, 4-(4-(2-pivalamidoethyl)piperidin-1-yl)thieno[3,2-d]pyrimidine-6-carboxamide]", "values": [
      {"measurement": "IC50", "setting": "SIRT2; Trp 5-mer peptide and NAD at KM, mean of at least three determinations, read-out: IC50 (μM) SIRT2", "result": 0.01, "unit": "µM"},
      {"measurement": "IC50", "setting": "SIRT2; Trp 5-mer peptide, class symbols, read-out: Trp SIRT2_IC50", "result": "< 1", "unit": "µM"},
      {"measurement": "CYP 2C19", "setting": "CYP 2C19", "result": "> 50", "unit": "µM"},
      {"measurement": "CYP 3A4", "setting": "CYP 3A4", "result": "> 50", "unit": "µM"},
      {"measurement": "Mouse CLint", "setting": "[1]", "result": 12.7, "unit": "µL/min/mg"},
      {"measurement": "inhibition of sirtuin mediated deacetylation of acetyl-p65", "setting": "[2]", "result": "inhibit"},
      {"measurement": "Human CLint", "setting": "[3]", "result": 15.8, "unit": "µL/min/mg"},
      {"measurement": "CYP 2D6", "setting": "CYP 2D6", "result": "> 50", "unit": "µM"},
      {"measurement": "LogD", "setting": "[4]", "result": 2.73},
      {"measurement": "IC50", "setting": "SIRT1; Trp SIRT1_IC50, Trp 5-mer peptide, class symbols", "result": "< 1", "unit": "µM"},
      {"measurement": "IC50", "setting": "SIRT1; read-out: IC50 (μM) SIRT1, Trp 5-mer peptide and NAD at KM, mean of at least three determinations", "result": 0.015, "unit": "µM"},
      {"measurement": "CYP 1A2", "setting": "CYP 1A2", "result": "> 50", "unit": "µM"},
      {"measurement": "solubility at 1 hr", "setting": "[5]", "result": 297, "unit": "µM"}
    ]}
  ]
}
